Target: T1, ATP-binding cassette transporter A1 (ABCA1) (Homo sapiens, UniProt O95477)
T1 construct: full-length ABCA1 (pIRES2-EGFP-ABCA1) in CHO cells; with apoA-I
Experiment: cell-based ELISA-like apoA-I binding to ABCA1-transfected CHO cells, with vector-only control; western blot

T1 sequence (O95477 whole entry): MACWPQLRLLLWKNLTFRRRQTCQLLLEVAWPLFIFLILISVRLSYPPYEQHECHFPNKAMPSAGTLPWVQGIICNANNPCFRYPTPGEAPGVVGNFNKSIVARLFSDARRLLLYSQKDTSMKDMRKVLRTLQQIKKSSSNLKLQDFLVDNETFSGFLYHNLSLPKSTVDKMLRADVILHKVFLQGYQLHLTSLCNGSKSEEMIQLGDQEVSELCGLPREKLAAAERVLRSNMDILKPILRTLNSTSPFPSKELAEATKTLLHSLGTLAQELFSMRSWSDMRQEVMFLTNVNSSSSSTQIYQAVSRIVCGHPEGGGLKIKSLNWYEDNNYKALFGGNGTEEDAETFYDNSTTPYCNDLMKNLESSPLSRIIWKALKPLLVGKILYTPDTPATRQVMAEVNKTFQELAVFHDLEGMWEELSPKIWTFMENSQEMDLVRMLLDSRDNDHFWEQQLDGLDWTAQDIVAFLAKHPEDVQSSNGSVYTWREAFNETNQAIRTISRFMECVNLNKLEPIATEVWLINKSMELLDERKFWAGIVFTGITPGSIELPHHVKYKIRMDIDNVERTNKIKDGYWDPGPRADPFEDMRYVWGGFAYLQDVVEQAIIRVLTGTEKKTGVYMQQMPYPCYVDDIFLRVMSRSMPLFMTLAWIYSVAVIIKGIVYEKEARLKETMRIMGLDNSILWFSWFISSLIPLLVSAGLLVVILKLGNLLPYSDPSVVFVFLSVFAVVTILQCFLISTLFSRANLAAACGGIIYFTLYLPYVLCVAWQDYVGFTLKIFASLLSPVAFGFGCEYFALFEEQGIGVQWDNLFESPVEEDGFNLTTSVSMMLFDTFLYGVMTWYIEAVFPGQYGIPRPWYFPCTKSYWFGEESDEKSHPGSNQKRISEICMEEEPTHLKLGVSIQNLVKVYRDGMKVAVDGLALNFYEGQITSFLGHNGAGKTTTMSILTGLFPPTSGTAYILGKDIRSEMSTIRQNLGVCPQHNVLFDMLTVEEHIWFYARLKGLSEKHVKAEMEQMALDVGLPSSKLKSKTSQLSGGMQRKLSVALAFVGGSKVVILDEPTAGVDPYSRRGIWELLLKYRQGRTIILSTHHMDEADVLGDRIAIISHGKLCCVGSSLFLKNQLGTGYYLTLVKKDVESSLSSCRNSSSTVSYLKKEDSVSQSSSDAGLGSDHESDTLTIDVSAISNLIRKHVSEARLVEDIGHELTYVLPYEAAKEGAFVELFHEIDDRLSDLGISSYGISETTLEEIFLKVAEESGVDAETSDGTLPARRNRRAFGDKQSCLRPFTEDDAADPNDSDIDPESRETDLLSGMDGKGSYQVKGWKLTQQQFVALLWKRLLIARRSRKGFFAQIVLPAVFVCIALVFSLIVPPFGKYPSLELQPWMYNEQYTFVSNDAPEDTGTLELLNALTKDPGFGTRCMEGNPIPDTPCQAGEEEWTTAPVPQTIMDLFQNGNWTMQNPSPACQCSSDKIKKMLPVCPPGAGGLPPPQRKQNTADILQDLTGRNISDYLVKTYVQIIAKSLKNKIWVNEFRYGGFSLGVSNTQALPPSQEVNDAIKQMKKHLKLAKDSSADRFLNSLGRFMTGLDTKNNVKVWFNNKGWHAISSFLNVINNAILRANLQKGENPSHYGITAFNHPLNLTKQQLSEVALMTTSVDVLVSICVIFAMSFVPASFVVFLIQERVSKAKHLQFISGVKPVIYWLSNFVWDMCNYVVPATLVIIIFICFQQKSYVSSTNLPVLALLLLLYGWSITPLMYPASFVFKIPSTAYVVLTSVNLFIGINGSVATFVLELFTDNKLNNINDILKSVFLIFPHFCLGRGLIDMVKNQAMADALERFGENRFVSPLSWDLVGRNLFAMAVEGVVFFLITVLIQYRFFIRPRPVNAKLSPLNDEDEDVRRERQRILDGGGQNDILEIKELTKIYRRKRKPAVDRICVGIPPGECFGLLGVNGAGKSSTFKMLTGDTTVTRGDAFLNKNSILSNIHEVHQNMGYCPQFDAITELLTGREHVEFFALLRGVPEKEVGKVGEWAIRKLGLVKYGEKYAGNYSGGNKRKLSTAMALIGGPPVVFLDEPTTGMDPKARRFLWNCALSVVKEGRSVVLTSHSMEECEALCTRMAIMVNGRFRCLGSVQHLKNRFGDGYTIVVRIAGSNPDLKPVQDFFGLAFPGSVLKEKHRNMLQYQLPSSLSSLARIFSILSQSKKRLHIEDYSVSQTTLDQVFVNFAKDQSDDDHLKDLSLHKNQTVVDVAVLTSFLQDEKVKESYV
T1 sequence (P02647 25-267 partner): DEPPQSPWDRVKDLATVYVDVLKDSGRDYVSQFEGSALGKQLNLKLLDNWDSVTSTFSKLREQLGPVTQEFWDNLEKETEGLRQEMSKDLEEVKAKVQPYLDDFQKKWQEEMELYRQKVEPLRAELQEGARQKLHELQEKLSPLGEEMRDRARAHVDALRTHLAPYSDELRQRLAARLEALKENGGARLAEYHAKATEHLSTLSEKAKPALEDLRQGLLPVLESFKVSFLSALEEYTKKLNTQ

COc1ccc(Cl)cc1C(=O)NCCc1ccc(S(=O)(=O)NC(=O)NC2CCCCC2)cc1 [glibenclamide]
cell-based ELISA-like apoA-I binding to ABCA1-transfected CHO cells, with vector: an inhibition by glibenclamide was observed on transfected cells expressing ABCA1

Source: paper PMC6268880, “IMB2026791, a Xanthone, Stimulates Cholesterol Efflux by Increasing the Binding of Apolipoprotein A-I to ATP-Binding Cassette Transporter A1” (Molecules, 2012)
